Laboratory results published in ChEMBL document CHEMBL1201862, “PubChem BioAssay data set” (2004).
Activity calls are given as the source filed them.

What was measured:
[1] = target: T1, Dual specificity protein phosphatase 3 (Homo sapiens, UniProt P51452); experiment: SAR VHR1 absorbance Assay for In Vitro dose response studies. [Related pubchem assays (depositor defined):AID1654, AID1661, AID1878, AID1992, AID2004]
[2] = target: T1, Dual specificity protein phosphatase 3; experiment: SAR VHR1 Fluorescent Assay for In Vitro dose response studies. [Related pubchem assays (depositor defined):AID1654, AID1661, AID1878, AID1992, AID2004, AID2070, AID2085]; format: functional
[3] = target: T1, Dual specificity protein phosphatase 3; experiment: SAR VHR1 Fluorescent Assay for In Vitro dose response studies Set 2. [Related pubchem assays (depositor defined):AID1654, AID1661, AID1878]; format: functional
Vero = experiment: viability of Vero cells under compound – cytotoxicity control for flavivirus capping enzyme inhibitors (AID 588742); format: functional; conditions: Chlorocebus sabaeus
[4] = target: T2, Dual specificity protein phosphatase 6 (Rattus norvegicus, UniProt Q64346); format: functional;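 further: confirmatory in vitro dose-response testing of MKP-3 inhibition; recombinant His-tagged MKP-3 made in E. coli BL21 with OMFP substrate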
T2 sequence (Q64346 whole entry): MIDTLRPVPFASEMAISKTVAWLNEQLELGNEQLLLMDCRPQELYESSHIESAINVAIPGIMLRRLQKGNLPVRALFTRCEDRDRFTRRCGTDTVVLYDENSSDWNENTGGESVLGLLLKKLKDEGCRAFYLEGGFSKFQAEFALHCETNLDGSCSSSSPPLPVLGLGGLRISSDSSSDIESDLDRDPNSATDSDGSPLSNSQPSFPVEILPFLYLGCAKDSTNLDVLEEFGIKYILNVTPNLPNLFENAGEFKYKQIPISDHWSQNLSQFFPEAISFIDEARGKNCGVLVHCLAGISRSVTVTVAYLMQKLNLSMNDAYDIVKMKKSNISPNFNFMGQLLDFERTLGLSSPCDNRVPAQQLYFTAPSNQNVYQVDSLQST

[5] = target: T3, Probable nicotinate-nucleotide adenylyltransferase (Staphylococcus aureus (strain N315), UniProt P65502); format: functional, Staphylococcus aureus subsp. aureus N315;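 on IC50 Mean: confirmatory dose-response retesting of NadD inhibitor hits first found in an ultra-high-throughput screen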
T3 sequence (P65502 whole entry): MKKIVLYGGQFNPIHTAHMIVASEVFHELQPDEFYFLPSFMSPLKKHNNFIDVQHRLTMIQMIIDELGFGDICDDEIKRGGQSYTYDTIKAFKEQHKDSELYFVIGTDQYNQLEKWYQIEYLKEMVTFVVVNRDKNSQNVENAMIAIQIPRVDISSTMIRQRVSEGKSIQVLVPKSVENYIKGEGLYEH

[6] = target: T3, Probable nicotinate-nucleotide adenylyltransferase; format: functional, Staphylococcus aureus subsp. aureus N315; conditions: read-out: IC50_Mean
Fatty acid synthase [7] = target: T4, Fatty acid synthase (Homo sapiens, UniProt P49327); experiment: inhibition of human FAS-TE enzyme activity – biochemical, endpoint fluorescence intensity, uHTS hits, dose response (AID 624327); format: functional;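 further: fluorescence from hydrolysis of an O-methyl fluorescein acyl ester substrate by the enzyme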
T4 sequence (P49327 whole entry): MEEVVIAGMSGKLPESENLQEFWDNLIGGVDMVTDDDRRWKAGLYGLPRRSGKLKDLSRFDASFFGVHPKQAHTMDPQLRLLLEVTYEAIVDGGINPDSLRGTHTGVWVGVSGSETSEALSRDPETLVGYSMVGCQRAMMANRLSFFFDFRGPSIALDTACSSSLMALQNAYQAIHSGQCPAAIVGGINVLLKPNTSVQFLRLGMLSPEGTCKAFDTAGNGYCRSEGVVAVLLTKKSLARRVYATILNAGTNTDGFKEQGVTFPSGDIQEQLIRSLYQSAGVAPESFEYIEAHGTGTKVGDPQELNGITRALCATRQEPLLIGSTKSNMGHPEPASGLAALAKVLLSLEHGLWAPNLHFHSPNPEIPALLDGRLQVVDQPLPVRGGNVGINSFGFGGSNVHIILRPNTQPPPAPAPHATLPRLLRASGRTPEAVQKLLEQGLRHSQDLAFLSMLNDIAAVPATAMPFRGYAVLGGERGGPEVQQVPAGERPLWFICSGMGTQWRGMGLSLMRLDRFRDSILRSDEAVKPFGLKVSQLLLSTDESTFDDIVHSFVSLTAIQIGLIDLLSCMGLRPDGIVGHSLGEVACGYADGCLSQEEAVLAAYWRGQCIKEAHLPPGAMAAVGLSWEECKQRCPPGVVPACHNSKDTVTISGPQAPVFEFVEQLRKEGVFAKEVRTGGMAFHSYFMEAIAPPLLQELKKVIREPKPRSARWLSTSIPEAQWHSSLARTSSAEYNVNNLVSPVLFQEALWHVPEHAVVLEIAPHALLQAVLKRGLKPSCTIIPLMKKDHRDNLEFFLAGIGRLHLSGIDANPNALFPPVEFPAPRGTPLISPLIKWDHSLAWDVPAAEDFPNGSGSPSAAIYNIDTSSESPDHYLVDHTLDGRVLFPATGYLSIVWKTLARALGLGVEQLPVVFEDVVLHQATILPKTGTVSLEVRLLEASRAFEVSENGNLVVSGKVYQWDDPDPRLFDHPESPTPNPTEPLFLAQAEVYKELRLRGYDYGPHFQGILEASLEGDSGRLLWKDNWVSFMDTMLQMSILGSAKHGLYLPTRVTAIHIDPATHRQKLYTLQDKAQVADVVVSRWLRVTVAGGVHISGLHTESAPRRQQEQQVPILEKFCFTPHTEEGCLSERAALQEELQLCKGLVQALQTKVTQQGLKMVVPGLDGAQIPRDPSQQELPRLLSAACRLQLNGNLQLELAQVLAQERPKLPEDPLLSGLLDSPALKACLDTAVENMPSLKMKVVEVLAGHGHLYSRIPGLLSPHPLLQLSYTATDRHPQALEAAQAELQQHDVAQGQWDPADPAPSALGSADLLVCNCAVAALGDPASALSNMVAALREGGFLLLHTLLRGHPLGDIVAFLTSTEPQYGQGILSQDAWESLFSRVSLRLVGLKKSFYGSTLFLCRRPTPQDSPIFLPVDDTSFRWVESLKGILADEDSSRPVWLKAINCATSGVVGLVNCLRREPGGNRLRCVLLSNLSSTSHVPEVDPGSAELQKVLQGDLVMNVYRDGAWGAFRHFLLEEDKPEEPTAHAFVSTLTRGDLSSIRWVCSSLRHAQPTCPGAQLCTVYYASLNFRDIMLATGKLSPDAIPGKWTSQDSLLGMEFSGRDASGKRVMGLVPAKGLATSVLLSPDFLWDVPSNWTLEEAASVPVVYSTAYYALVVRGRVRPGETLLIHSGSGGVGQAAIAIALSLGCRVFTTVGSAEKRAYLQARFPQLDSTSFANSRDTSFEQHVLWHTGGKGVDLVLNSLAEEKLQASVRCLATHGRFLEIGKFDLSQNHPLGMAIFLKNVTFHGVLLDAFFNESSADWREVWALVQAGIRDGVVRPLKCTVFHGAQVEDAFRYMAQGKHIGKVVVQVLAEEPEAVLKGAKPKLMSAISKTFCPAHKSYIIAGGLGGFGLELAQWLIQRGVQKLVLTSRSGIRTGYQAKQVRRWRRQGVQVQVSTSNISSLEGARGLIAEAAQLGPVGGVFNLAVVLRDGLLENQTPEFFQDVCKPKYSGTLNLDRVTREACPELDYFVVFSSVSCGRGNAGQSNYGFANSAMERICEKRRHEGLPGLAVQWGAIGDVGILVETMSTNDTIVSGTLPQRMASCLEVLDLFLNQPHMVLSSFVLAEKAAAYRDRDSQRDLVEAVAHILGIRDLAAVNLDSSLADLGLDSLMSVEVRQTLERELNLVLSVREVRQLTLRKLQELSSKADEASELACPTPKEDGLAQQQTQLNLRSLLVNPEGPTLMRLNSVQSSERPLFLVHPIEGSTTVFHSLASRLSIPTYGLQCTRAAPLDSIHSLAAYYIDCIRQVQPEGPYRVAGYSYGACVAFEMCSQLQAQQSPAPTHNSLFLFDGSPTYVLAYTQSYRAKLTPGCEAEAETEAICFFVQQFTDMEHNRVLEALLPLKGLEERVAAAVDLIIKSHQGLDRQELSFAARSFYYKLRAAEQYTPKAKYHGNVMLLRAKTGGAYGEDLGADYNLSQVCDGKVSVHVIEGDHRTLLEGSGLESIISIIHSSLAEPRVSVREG

Fatty acid synthase [8] = target: T4, Fatty acid synthase; experiment: inhibition of human FAS-TE enzyme activity – biochemical, kinetic fluorescence intensity, dose response (AID 624326); format: functional;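 further: rate of fluorescence rise from hydrolysis of a fluorogenic O-methyl fluorescein ester substrate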
[9] = target: Glucose-6-phosphate 1-dehydrogenase (Homo sapiens, UniProt P11413); experiment: inhibition of Homo sapiens G6PD, dose series – biochemical, fluorescence, selectivity assay for P. falciparum G6PD inhibitor project, dose response (AID 504792); format: functional
Sequence of Glucose-6-phosphate 1-dehydrogenase (P11413 whole entry): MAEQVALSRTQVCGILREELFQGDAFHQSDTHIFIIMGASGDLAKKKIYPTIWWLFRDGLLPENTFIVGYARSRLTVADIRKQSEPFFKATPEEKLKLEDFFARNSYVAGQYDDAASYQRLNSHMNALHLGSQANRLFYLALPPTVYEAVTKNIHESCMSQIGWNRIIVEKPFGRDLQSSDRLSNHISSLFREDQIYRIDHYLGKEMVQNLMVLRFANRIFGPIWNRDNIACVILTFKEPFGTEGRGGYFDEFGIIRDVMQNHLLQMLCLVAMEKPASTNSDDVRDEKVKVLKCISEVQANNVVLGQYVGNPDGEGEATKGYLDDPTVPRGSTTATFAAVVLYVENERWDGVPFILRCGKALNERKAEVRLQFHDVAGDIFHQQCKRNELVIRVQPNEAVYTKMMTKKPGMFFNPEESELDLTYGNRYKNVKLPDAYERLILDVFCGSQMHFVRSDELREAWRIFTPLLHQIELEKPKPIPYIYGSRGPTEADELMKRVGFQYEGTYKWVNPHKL

[10] = target: T5, Replicative DNA helicase DnaB (Mycobacterium tuberculosis, UniProt P9WMR3); experiment: DnaB intein splicing inhibitors, dose response, biochemical, cell-free fluorescence (AID 449749); format: functional
T5 sequence (P9WMR3 whole entry): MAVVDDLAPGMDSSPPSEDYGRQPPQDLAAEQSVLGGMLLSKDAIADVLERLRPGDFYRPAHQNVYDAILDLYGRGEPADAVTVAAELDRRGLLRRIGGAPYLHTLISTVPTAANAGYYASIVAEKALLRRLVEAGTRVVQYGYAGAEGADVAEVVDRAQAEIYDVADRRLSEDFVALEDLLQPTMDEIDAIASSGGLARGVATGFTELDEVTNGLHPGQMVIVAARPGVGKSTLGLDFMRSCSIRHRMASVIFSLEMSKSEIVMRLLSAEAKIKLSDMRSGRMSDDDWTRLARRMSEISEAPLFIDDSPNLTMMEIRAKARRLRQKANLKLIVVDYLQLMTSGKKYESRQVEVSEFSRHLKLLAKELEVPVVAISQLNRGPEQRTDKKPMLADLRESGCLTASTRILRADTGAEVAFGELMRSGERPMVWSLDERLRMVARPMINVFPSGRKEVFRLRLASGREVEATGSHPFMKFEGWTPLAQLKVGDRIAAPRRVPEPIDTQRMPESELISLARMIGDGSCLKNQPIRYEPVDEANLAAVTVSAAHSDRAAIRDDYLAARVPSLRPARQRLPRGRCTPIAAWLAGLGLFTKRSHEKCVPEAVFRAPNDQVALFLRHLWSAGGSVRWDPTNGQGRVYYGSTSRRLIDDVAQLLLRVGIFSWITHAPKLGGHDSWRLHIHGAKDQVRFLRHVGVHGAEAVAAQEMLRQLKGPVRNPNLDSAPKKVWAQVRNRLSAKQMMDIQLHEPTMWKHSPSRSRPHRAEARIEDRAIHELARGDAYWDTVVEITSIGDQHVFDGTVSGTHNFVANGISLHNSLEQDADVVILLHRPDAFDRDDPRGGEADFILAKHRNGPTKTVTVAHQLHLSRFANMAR

[11] = target: T6, Apoptotic protease-activating factor 1 (Homo sapiens, UniProt O14727); experiment: activation of Apaf-1 mediated apoptosis – fluorescent, uHTS hits, dose response (AID 588554); format: functional
T6 sequence (O14727 whole entry): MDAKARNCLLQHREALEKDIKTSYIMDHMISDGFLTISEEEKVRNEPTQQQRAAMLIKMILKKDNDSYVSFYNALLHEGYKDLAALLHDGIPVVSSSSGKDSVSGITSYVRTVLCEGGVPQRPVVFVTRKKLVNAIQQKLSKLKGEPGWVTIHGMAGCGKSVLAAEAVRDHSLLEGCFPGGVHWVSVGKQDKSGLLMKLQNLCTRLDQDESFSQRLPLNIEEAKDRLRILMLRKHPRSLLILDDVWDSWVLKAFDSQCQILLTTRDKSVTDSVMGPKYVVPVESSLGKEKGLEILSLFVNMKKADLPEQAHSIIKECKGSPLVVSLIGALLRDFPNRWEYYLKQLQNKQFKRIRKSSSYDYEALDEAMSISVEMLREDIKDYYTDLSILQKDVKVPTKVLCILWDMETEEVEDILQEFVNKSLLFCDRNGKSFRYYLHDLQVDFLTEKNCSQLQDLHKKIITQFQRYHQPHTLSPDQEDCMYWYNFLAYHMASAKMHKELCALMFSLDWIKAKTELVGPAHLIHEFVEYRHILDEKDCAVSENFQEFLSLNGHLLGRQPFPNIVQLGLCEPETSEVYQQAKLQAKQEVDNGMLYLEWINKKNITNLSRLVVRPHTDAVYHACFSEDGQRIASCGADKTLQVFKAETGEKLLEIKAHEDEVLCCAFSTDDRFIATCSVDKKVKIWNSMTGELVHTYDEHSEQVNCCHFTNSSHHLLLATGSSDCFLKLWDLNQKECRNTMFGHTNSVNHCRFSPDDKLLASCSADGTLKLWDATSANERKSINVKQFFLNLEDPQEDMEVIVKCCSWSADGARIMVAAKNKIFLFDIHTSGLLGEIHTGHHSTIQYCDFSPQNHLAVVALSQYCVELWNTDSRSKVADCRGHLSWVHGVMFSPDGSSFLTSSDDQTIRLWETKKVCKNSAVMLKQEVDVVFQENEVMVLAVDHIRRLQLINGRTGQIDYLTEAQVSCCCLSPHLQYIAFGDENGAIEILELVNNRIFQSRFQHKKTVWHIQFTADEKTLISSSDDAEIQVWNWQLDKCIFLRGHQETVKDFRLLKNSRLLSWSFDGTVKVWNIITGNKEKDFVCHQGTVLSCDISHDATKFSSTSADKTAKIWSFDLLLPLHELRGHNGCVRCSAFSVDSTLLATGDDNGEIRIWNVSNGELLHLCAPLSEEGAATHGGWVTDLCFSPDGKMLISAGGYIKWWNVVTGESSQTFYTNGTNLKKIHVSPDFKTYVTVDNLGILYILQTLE

Protein RecA = target: T7, Protein RecA (Mycobacterium tuberculosis, UniProt P9WHJ3); experiment: Fluorescence Cell-Free Homogeneous Dose Retest to Identify Inhibitors of RecA-Intein Splicing Activity. [Related pubchem assays (depositor defined):AID2097, AID2223, AID489010, AID492950]; format: functional
T7 sequence (P9WHJ3 whole entry): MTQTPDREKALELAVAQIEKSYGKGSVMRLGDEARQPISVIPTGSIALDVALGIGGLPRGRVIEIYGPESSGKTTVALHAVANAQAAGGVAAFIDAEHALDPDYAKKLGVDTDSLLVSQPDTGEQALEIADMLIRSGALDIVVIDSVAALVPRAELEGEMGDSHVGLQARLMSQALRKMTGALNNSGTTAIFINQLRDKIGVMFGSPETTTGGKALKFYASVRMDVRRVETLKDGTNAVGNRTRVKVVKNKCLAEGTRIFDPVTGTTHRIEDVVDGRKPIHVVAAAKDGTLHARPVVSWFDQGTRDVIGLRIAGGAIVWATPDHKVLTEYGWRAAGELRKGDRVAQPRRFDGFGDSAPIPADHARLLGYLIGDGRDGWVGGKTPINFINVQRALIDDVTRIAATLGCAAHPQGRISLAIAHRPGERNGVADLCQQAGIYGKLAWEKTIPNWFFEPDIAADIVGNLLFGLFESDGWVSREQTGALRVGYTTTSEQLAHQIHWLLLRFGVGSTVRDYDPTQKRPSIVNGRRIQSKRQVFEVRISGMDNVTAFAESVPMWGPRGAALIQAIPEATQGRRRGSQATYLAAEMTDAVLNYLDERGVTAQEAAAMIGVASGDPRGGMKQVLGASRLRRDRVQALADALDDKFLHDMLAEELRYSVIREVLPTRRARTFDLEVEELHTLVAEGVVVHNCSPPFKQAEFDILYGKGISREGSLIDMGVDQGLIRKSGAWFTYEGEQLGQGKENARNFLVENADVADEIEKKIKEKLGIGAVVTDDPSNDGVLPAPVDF

[12] = target: T8, Polyadenylate-binding protein 1 (Homo sapiens, UniProt P11940); experiment: MLLE binding blockers, Cy5 peptide tracer – biochemical, fluorescence polarization, Cy5-PAM2 peptide, secondary, miRNA deadenylation inhibitor project, dose response (AID 602260); format: functional; conditions: read-out: IC50_Mean
T8 sequence (P11940 whole entry): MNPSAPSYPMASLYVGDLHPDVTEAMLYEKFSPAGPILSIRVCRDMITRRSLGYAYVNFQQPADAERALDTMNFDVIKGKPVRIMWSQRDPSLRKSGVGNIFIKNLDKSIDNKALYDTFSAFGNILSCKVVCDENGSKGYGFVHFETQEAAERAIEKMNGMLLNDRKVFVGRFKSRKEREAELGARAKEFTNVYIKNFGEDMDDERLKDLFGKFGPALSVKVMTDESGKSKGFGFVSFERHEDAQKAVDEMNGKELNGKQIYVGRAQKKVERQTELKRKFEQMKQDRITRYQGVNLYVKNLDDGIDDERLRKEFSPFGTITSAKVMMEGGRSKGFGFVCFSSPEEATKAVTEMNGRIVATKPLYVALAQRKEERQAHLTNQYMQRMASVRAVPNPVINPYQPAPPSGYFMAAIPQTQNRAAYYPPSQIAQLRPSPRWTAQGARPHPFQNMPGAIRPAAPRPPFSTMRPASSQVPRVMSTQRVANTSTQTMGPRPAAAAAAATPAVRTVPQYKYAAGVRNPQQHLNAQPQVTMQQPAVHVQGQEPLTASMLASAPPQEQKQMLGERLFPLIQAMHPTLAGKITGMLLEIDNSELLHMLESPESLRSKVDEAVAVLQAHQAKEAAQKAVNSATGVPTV

[13] = target: T6, Apoptotic protease-activating factor 1; experiment: SAR analysis of small molecule Activators of Apaf-1 in a Fluorescent assay.; format: functional; conditions: read-out: EC50_Mean
[14] = target: T8, Polyadenylate-binding protein 1; experiment: MLLE domain peptide-binding blockers, IC50 – biochemical, fluorescence polarization, FITC-PAM2 peptide, dose response (AID 602259); format: functional; conditions: read-out: IC50_Mean
Caspase-6 = target: T9, Caspase-6 (Homo sapiens, UniProt P55212); experiment: inhibition of CASP6 peptide cleavage – biochemical, VEID-R110 fluorescence, cherry-pick, dose response (AID 720632)
T9 sequence (P55212 whole entry): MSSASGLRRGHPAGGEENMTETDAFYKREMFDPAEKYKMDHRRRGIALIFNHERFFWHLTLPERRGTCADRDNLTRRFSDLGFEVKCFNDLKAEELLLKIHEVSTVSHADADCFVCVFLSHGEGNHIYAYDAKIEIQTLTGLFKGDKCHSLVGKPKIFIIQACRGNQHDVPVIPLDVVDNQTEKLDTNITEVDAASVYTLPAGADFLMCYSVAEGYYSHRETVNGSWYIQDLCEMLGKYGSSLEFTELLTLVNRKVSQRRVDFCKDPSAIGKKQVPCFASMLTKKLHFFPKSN

Caspase-7 = Caspase-7 (Homo sapiens, UniProt P55210); experiment: caspase-7 enzyme inhibition, selectivity check – biochemical, DEVD-R110 fluorescence, cherry-pick, selectivity assay for caspase-6 inhibitor project, dose response (AID 743295); format: functional
Sequence of Caspase-7 (P55210 24-198 limits assumed): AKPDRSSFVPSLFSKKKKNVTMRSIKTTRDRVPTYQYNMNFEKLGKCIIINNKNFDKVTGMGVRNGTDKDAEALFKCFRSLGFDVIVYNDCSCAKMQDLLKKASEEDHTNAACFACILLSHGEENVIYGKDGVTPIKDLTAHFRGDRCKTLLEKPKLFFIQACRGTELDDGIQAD
Sequence of Caspase-7 (P55210 207-303 limits assumed): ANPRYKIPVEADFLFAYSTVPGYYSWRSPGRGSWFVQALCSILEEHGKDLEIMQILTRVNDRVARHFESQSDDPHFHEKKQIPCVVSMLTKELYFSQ
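Wherever EC50 Mean is given: caspase-3 cleavage of fluorogenic Rh110 DEVD substrate downstream of apoptosome activation.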

T1 sequence (P51452 whole entry): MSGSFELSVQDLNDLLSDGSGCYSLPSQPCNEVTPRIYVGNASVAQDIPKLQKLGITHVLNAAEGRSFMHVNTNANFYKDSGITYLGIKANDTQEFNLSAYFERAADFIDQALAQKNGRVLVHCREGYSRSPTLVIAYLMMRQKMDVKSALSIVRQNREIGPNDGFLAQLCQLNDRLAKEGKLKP

SMILES	IC50 [1]	IC50 [2]	IC50 [3]	CC50 (Vero)	IC50 [4]	IC50 [5]	IC50 [6]	IC50 (Fatty acid synthase [7])	IC50 (Fatty acid synthase [8])	IC50 [9]	AC50 [10]	EC50 [11]	EC50 (Protein RecA)	IC50 [12]	EC50 [13]	IC50 [14]	AC50 (Caspase-6)	AC50 (Caspase-7)
O=C(O)CSc1cc(C(=O)c2ccccc2O)cn2c(=O)c3c(-c4ccccc4)csc3nc12	1.93 µM (active)	14.6 µM (active)	12.3 µM (active)	38.8 µM (active)	13.2 µM (active)	7.1 µM (active)	28.4 µM (active)	4.85 µM (active)	4.3 µM (active)	–	–	–	–	–	–	–	–	–
CC(CNc1ccccc1O)C(=O)O (stereo not drawn)	–	–	–	–	–	–	–	–	–	> 80 µM (inactive)	28.7 µM (active)	14 µM (active)	7.79 µM (active)	> 66 µM (inactive)	> 100 µM (inactive)	> 66 µM (inactive)	3.52 µM (active)	> 70 µM (inactive)
